Results taken from patent publication US6583177B2, “Leukotriene B4 antagonist compounds and method for treatment” (Ono Pharmaceutical Co., Ltd., priority 1994, dated 2003).
Like-named read-outs stand apart in the source and are kept apart here.

How the values were obtained:
LTB4 receptor = biological target: T1, LTB4 receptor (Homo sapiens, UniProt Q15722); assay: Binding inhibition against 3H-LTB4 on the human polymorphonuclear leukocyte (PMN); conditions: percentage of inhibition of specific 3H-LTB4 (4nM) binding to human PMN, 0° C. for 20 min
T1 construct: The reaction was started by addition of a thoroughly mixed PMN cell suspension (1.6×10^6 cells); endogenous in cells; host or cells: human polymorphonuclear leukocytes (PMN), whole-cell suspension
T1 sequence (Q15722 whole entry): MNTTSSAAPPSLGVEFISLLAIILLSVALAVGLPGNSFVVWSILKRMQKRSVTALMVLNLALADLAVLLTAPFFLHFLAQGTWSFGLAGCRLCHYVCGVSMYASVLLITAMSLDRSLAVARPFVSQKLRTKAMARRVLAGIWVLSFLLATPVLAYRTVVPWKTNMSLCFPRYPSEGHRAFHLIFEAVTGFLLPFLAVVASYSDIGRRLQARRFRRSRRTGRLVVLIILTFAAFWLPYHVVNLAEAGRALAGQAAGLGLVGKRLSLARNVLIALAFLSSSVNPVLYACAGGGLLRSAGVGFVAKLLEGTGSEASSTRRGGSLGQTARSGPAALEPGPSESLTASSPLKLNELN
Description: Binding Inhibition Against ^3H-LTB4 on the Human Polymorphonuclear Leukocyte (PMN)
0.049 ml Hanks balanced salt solution (HBSS), 0.001 ml test compound and 0.05 ml ^3H-LTB4 (4nM) were added to polypropylene tubes and mixed. The reaction was started by addition of a thoroughly mixed PMN cell suspension (1.6×10^6 cells), followed by incubation at 0° C. for 20 min. The reaction was terminated by the addition of ice-cold HBSS (2.5 ml). PMNs were harvested by vacuum filtration through Whatman GF/C glass fiber filters on a Brandel cell harvester (BRANDEL, M-24R). The filters were then washed 2 times to remove free ^3H-LTB4 with 2.5 ml of the ice-cold PBS (−) solution. The filters were transferred to each vial, and equilibrated after adding 8 ml ACS II cocktail (Amersham). The radioactivity was measured by liquid scintillation counter (Aloka, LSC-5100).
Specific binding of ^3H-LTB4 to the LTB4 receptor was defined as total binding minus nonspecific binding. Nonspecific binding was the amount of ^3H-LTB4 binding in the presence of 1.5 μM LTB4 instead of the test compound. The inhibitory effect of test compound was calculated from the following equation.
The percentage of inhibition (%)=100−(B1/B0×100)
B1: Specific ^3H-LTB4 binding in presence of test compound
B0: Specific ^3H-LTB4 binding in absence of test compound
The compounds of the formula (IB), of the present invention have an antagonistic activity on LTB4. The results which are measured by method as hereinbefore described in Example 1(A), are shown the following Table 18.

[1] = biological target: T2, trypsin (derived from bovine pancreas) (Bos taurus, UniProt P00760); assay: Inhibitory activity on trypsin; format: biochemical
T2 construct: a solution of 80 mU/ml trypsin (derived from bovine pancreas) (50 μl); from tissue; host or cells: bovine pancreas
T2 sequence (P00760 24-246): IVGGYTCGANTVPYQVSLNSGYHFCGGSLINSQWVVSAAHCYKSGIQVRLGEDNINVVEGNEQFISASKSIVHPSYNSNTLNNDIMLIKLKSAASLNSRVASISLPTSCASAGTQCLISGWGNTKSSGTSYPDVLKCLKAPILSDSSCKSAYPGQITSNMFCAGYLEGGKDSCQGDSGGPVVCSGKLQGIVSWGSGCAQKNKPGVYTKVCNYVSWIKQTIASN
Description: (2) Inhibitory Activity on Trypsin
To a mixture of a 0.2 M HEPES.sodium hydroxide buffer solution (pH 8.0, 100 μl) and distilled water (640 μl), were added a test compound in various concentration or water (10 μl), and a solution of 80 mU/ml trypsin (derived from bovine pancreas) (50 μl) and then the mixture was preincubated for one minute at 30° C. To the solution thus obtained was added 2.5 mM BAPNA (200 μl) and the mixture was incubated at 30° C. The absorbance at 405 nm was measured. Percentage (%) of the absorbance in the presence of a test compound was calculated when the absorbance in the absence thereof was regarded as 100%, and therefrom IC50 value was calculated.
HEPES represents 4-2-hydroxyethyl)-1-piperazineethanesulfonic acid, and
BAPNA represents α-N-benzoyl-DL-arginine-p-nitroanilide hydrochloride.

[2] = biological target: T3, PLA2 (derived from hog pancreas) (Sus scrofa, UniProt P00592); assay: Inhibitory activity on PLA2; format: biochemical; conditions: hog pancreas PLA2, 10PY-PC substrate, fluorescence, pH7.5
T3 construct: a solution of 10 mU/ml PLA2 (derived from hog pancreas) (50 μl); from tissue; host or cells: hog pancreas
T3 sequence (P00592 23-146): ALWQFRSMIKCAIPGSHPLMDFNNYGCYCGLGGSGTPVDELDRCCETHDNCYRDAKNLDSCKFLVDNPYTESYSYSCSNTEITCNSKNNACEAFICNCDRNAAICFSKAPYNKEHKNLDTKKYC
Description: (1) Inhibitory Activity on PLA2
A reaction solution including 50 mM tris-HCl buffer (pH7.5, 874 μl; containing 100 mM sodium chloride, 1 mM EDTA), 1M calciumchloride (6 μl), 1% bovine serum albumin (10 μl) and 2.5 mM 10PY-PC (10 μl), was prepared. To the solution were added a test compound in various concentration or water (50 μl), and a solution of 10 mU/ml PLA2 (derived from hog pancreas) (50 μl). The appearance of fluorescence was measured (Ex=345 nm, Em=396 nm). Percentage (%) of the strength of fluorescence in the presence of a test compound was calculated when the strength of that in the absence thereof was regarded as 100%, and therefrom IC50 value was calculated.
10PY-PC represents 3′-palmitoyl-2-(1-pyrenedecanoyl)-L-α-phosphatidylcholine, […]

[3] = formula (IA) compounds, Table 17
[4] = bovine pancreas trypsin, BAPNA substrate, 30° C., pH 8.0, read-out: inhibitory activity on trypsin IC50
[5] = formula (IB) compounds, Table 18

Row | Structure (SMILES) | inhibition (LTB4 receptor; [3]) [%] | IC50 [1, 4] [µM] | inhibition (LTB4 receptor; [5]) [%] | IC50 [2] [µM] | IC50 [1] [µM]
1 | CCOP(=O)(CCCc1ccccc1)Cc1ccc(C(=O)Oc2ccc(C(=N)N)cc2)cc1 (stereo not shown) [Compound 4] | – | 0.16 | 73.1 | 41 | –
2 | N=C(N)c1ccc(OC(=O)c2ccc(CN3CCC(c4ccccc4)CC3)cc2)cc1 [Compound 5] | – | 0.13 | 89.7 | – | –
3 | CCOC(=O)CN(Cc1ccccc1)Cc1ccc(C(=O)Oc2ccc(C(=N)N)cc2)cc1 [Compound 6] | – | 0.17 | 67.8 | 4.5 | –
4 | C/C(=C\c1ccc(C(=O)Oc2ccc(C(=N)N)cc2)cc1)C(=O)N(CC(=O)O)Cc1ccccc1 [Compound 21] | 90.8 | – | – | – | –
5 | COCCCN(C(=O)/C(C)=C/c1ccc(C(=O)Oc2ccc(C(=N)N)cc2)cc1)C(C(=O)O)C(=O)O [Compound 24] | 61.2 | – | – | – | –
6 | N=C(N)C1=Cc2ccc(OC(=O)c3ccc(C(=O)N(Cc4ccccc4)c4ccccc4)cc3)cc2CC1 [Example 2(a)] | – | 0.4 | 92 | 2.6 | –
7 | C/C(=C\c1ccc(C(=O)Oc2ccc(C(=N)N)cc2)cc1)C(=O)N(CCC(=O)O)C1CCCCC1 [Example 2(aa)] | – | – | 94.4 | – | –
8 | N=C(N)C1=Cc2ccc(OC(=O)c3ccc(C(=O)N(CC(=O)OCc4ccccc4)c4ccccc4)cc3)cc2CC1 [Example 2(b)] | – | 0.56 | 97.9 | 3.8 | –
9 | CCOC(=O)CN(C(=O)c1ccc(C(=O)Oc2ccc3c(c2)CCC(C(=N)N)=C3)cc1)c1ccccc1 [Example 2(c)] | – | 0.26 | 103 | 8.1 | –
10 | C/C(=C\c1ccc(C(=O)Oc2ccc(C(=N)N)cc2)cc1)C(=O)N(CC(=O)O)CC1CCCO1 (stereo not shown) [Example 2(cc)] | – | – | 76.7 | – | –
11 | CCOC(=O)CN(C(=O)c1ccc(C(=O)Oc2ccc(/C=C/C(=N)N)cc2)cc1)c1ccccc1 [Example 2(d)] | – | 0.14 | 99.3 | 8.7 | –
12 | C/C(=C\c1ccc(C(=O)Oc2ccc(C(=N)N)cc2)cc1)C(=O)N(CC(=O)O)CC1CCNCC1 [Example 2(dd)] | – | – | 50.8 | – | –
13 | CCOC(=O)[C@H](COC(=O)c1ccccc1)NC(=O)/C(C)=C/c1ccc(C(=O)Oc2ccc(C(=N)N)cc2)cc1 [Example 2(e)] | – | 0.34 | 94.5 | 8.5 | –
14 | C=CCN(CC(=O)O)C(=O)/C(C)=C/c1ccc(C(=O)Nc2ccc(C(=N)N)cc2)cc1 [Example 2(ee)] | – | – | 65.3 | – | –
15 | COc1cc(C(=N)N)ccc1OC(=O)c1ccc(C(=O)N(CCCc2ccccc2)C(Cc2ccccc2)Cc2ccccc2)cc1 [Example 2(ff)] | – | – | 82.4 | – | –
16 | C=CCN(CC(=O)OCC)C(=O)c1ccc(C(=O)Oc2ccc(/C=C/C(=N)N)cc2)cc1 [Example 2(i)] | – | 0.14 | 69.6 | 59 | –
17 | CCOC(=O)CC[C@H](NC(=O)COc1ccc(C(=O)Oc2ccc(C(=N)N)cc2)cc1)C(=O)OCC [Example 2(j)] | – | 0.12 | 55.4 | – | –
18 | C=CCN(CC(=O)OCC)C(=O)/C=C/C=C/c1ccc(C(=O)Oc2ccc(C(=N)N)cc2)cc1 [Example 2(n)] | – | 0.16 | 82.8 | 10 | –
19 | CCOP(=O)(/C=C/c1ccc(C(=O)Oc2ccc(C(=N)N)cc2)cc1)OCC [Example 4(a)] | – | – | 52 | – | 0.14
20 | N=C(N)c1ccc(OC(=O)c2ccc(Cn3ccnc3-c3ccccc3)cc2)cc1 [Example 5(a)] | – | 0.15 | 62.5 | – | –
21 | CCOC(=O)c1cc2ccccc2n1Cc1ccc(C(=O)Oc2ccc(C(=N)N)cc2)cc1 [Example 5(b)] | – | – | 90.2 | – | –

Second part, led by results:

Row | inhibition (LTB4 receptor; [3]) [%] | IC50 [1, 4] [µM] | inhibition (LTB4 receptor; [5]) [%] | IC50 [2] [µM] | Structure (SMILES) | IC50 [1] [µM]
22 | 91.5 | – | – | – | C=CCN(CC(=O)OCC)C(=O)/C(C)=C/c1ccc(C(=O)Oc2ccc(C(=N)N)cc2)cc1 [Compound 1] | –
23 | – | 0.19 | 79.7 | – | C=CCN(CC(=O)OCC)C(=O)COc1ccc(C(=O)Oc2ccc(C(=N)N)cc2)cc1 [Compound 2] | –
24 | 63.7 | – | – | – | CCOC(=O)CC[C@H](NC(=O)/C=C(\C)c1ccc(C(=O)Oc2ccc(C(=N)N)cc2)cc1)C(=O)OCC [Compound 4] | –
25 | 96.5 | – | – | – | C=CCN(CCCC(=O)OCC)C(=O)/C(C)=C/c1ccc(C(=O)Oc2ccc(C(=N)N)cc2)cc1 [Compound 14] | –
26 | 87 | – | – | – | CCOC(=O)CCN(CC(=O)OCC)C(=O)/C(C)=C/c1ccc(C(=O)Oc2ccc(C(=N)N)cc2)cc1 [Compound 18] | –
27 | 83.5 | – | – | – | C=CCN(CCCC(=O)O)C(=O)/C(C)=C/c1ccc(C(=O)Oc2ccc(C(=N)N)cc2)cc1 [Compound 20] | –
28 | – | – | 87.3 | – | CCOC(=O)CN(CCOC)C(=O)/C(C)=C/c1ccc(C(=O)Oc2ccc(C(=N)N)cc2)cc1 [Example 2(bb)] | –
29 | – | 0.1 | 91.8 | 70 | CCOC(=O)CC[C@H](NC(=O)c1ccc(/C=C/C(=O)Oc2ccc(C(=N)N)cc2)cc1)C(=O)OCC [Example 2(f)] | –
30 | – | 0.16 | 89.6 | 53 | CCOC(=O)CC[C@H](NC(=O)c1ccc(/C=C(\C)C(=O)Oc2ccc(C(=N)N)cc2)cc1)C(=O)OCC [Example 2(g)] | –
31 | – | 0.15 | 85.4 | 11 | CCOC(=O)/C=C/CC(NC(=O)/C(C)=C/c1ccc(C(=O)Oc2ccc(C(=N)N)cc2)cc1)(C(=O)OCC)C(=O)OCC [Example 2(h)] | –
32 | – | 0.1 | 97.7 | 20 | CCOC(=O)CC(NC(=O)/C(C)=C/c1ccc(C(=O)Oc2ccc(C(=N)N)cc2)cc1)(C(=O)OCC)C(=O)OCC [Example 2(k)] | –
33 | – | 0.12 | 81 | 94 | C=CCN(CC(=O)OCC)C(=O)c1ccc(/C=C(\C)C(=O)Oc2ccc(C(=N)N)cc2)cc1 [Example 2(l)] | –
34 | – | 0.17 | 89.2 | 18 | CCOC(=O)CC[C@H](NC(=O)/C=C/C=C/c1ccc(C(=O)Oc2ccc(C(=N)N)cc2)cc1)C(=O)OCC [Example 2(m)] | –
35 | – | – | 51.5 | – | C=CCN(CC(=O)NCCN(C)C)C(=O)/C(C)=C/c1ccc(C(=O)Oc2ccc(C(=N)N)cc2)cc1 [Example 2(t)] | –
36 | – | – | 67.6 | – | C=CCN(CC(=O)OCCN(C)C)C(=O)/C(C)=C/c1ccc(C(=O)Oc2ccc(C(=N)N)cc2)cc1 [Example 2(u)] | –
37 | – | – | 92 | – | C=CCN(CC(=O)Oc1ccc(C(=N)N)cc1)C(=O)/C(C)=C/c1ccc(C(=O)Oc2ccc(C(=N)N)cc2)cc1 [Example 2(v)] | –
38 | – | – | 76.7 | – | C=CCN(CC(=O)NC(C(=O)OCC)C(=O)OCC)C(=O)/C(C)=C/c1ccc(C(=O)Oc2ccc(C(=N)N)cc2)cc1 [Example 2(w)] | –
39 | – | – | 94.1 | – | C=CCN(CC=C)C(=O)CN(CC=C)C(=O)/C(C)=C/c1ccc(C(=O)Oc2ccc(C(=N)N)cc2)cc1 [Example 2(x)] | –
40 | – | – | 85.5 | – | CCOC(=O)CN(C(=O)/C(C)=C/c1ccc(C(=O)Oc2ccc(C(=N)N)cc2)cc1)[C@@H](CC(C)C)C(=O)OCC [Example 2(y)] | –
41 | – | – | 92.8 | – | CCOC(=O)CCN(CCC(C)C)C(=O)/C(C)=C/c1ccc(C(=O)Oc2ccc(C(=N)N)cc2)cc1 [Example 2(z)] | –
